One test has as its system mice. More on the design: method as in 2 sources, ref 19 (suppl. ref 1) ||| ref 19 = [19]; PMID 29708942; doi:10.1097/j.pain.0000000000001262; 19. Drieu La Rochelle A. Guillemyn K. Dumitrascuta M. Martin C. Utard V. Quillet R. Schneider S. Daubeuf F. Willemse T. Mampuys P. A bifunctional-biased mu-opioid agonist-neuropeptide FF receptor anta. Particulars: s.c., cited from earlier work.

The next test concerns NPFF1R. More on the design: method as in suppl. ref 1. Particulars: [35S]GTPγS binding assay; ref suppl. ref 1; cited from earlier work.
A further test has as its system human MOR. Put plainly: Comparison of G protein activation ([35S]GTPγS binding) and β-arrestin2 recruitment (PathHunter). A general note: GTPγS resists hydrolysis and so accumulates on activated G proteins.
In the next test the test system is DOR. More on the design: method as in 2 sources, one per row (each row's own in cited_ref): ref 19 = [19]; PMID 29708942; doi:10.1097/j.pain.0000000000001262; 19. Drieu La Rochelle A. Guillemyn K. Dumitrascuta M. Martin C. Utard V. Quillet R. Schneider S. Daubeuf F. Willemse T. Mampuys P. A bifunctional-biased mu-opioid agonist-neuropeptide FF receptor anta ||| ref suppl. ref 1. Particulars: cited from earlier work.

As to `Cc1cc(O)cc(C)c1C[C@H](N)C(=O)N[C@H](CCCNC(=N)N)C(=O)NC1Cc2ccccc2CN(CCC(=O)NC(CCCN2CCC(Cc3ccccc3)CC2)C(=O)N[C@@H](Cc2ccccc2)C(N)=O)C1=O` (stereo partly drawn) [KGFF09, H-Dmt-DArg-Aba-βAla-Bpa-Phe-NH2], in the test on mice (ref 19 (suppl. ref 1)), the “Antinociception, radiant tail-flick test” value was “yes and potent and long-lasting antinociceptive activity and very effective with long-lasting antinociceptive effects”. Also, in the test with mice, the “ED90, tail-flick test” value is recorded as 7.4 µmol/kg; the “Potency vs morphine, tail-flick test” value was “three-fold more potent than morphine”; the “Relation of 7.4 µmol/kg to tail-flick ED50” value is on record as “three-fold antinociceptive ED50 dose”. The “pA2, NPFF1R” value in the test with NPFF1R was 7.25. The “Decrease in potency, β-arrestin2 recruitment vs G protein activation” value in the test with human MOR (PathHunter vs [35S]GTPγS binding, human MOR) was found to be 153 fold. The “Signaling bias at MOR” value in the test with human MOR ([35S]GTPγS binding vs PathHunter β-arrestin2) is given as “G protein-biased MOR agonist in vitro”. Also, the “Emax, G protein activation, DOR” value with DOR (cAMP accumulation assay, ref suppl. ref 1) is 90%. For the same molecule, the “Functional profile at DOR” value in the test with DOR was “agonist activity at the delta opioid receptor (DOR)”.

Source of the values: publication PMC9780937 (Molecules, 2022).
